Experimental findings from ChEMBL document CHEMBL1201862, “PubChem BioAssay data set” (2004) are described below.

Among the test systems are 786-0; A549; ACHN; CAKI-1; HCC 2998; HCT-116; HCT-15; IGROV-1; LOX IMVI; OVCAR-3; OVCAR-4; RXF 393; SF-268; SK-MEL-2; U-251; HL-60; NCI-H522; OVCAR-8.
Holding throughout (test): growth of human tumour cells (NCI), 48 h

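A five-concentration, 48-hour dose response in 96-well plates underlies each endpoint, interpolated linearly between surrounding concentrations. Abbreviation: GI50, concentration required for 50% inhibition of growth.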 The source made the active and inactive calls. Rule as the data show it: active = GI50 up to about 1.1 µM and inactive = higher.

As to `Cc1ccccc1-c1c(N)nc(NC#N)nc1C(=O)Nc1ccccc1`, the GI50 in the assay on 786-0, with A549, with ACHN, in the assay with CAKI-1, in the assay on HCC 2998 and in the assay on HCT-116 was > 100 µM (inactive) throughout. For the same compound, the GI50 in the assay on HCT-15 was greater than 100 µM; with IGROV-1, > 100 µM (inactive); in the assay on LOX IMVI, > 100 µM (inactive); in the assay with OVCAR-3 it was > 100 µM (inactive); in the assay with OVCAR-4, > 100 µM (inactive); with RXF 393, > 100 µM (inactive). For the same compound, the GI50 was > 100 µM (inactive) with SF-268, 32.1 µM (inactive) in the assay on SK-MEL-2 and > 100 µM (inactive) in the assay on U-251.

On to `C=CCCC(C)N(C(=O)OC(C)(C)C)S(=O)(=O)c1ccc(C)cc1` (configuration not stated), for which the GI50 with 786-0, in the assay with A549, in the assay with ACHN, with CAKI-1, in the assay with HCC 2998 and in the assay with HCT-116 was > 100 µM (inactive) each time. Further, the GI50 with HCT-15 was greater than 100 µM; with HL-60, > 100 µM (inactive); in the assay with IGROV-1, > 100 µM (inactive); in the assay on LOX IMVI, > 100 µM (inactive); in the assay on NCI-H522, > 100 µM (inactive); in the assay on OVCAR-3 it was > 100 µM (inactive). Also, the GI50 in the assay on OVCAR-4, in the assay with OVCAR-8, with SF-268, in the assay with SK-MEL-2 and in the assay with U-251 was > 100 µM (inactive) throughout.

For the compound `CCOC(=O)/C(=C/c1ccc(N(C)C)cc1)N(CC)CC`, the GI50 with 786-0 is > 100 µM (inactive); with A549, 48.1 µM (inactive); with ACHN it was 76.2 µM (inactive); with CAKI-1, > 100 µM (inactive); with HCC 2998, > 100 µM (inactive); in the assay on HCT-116, 48.1 µM (inactive). Besides, the GI50 with HCT-15 is 40.3 µM; in the assay with HL-60 it was 27.2 µM (inactive); in the assay with IGROV-1 it was > 100 µM (inactive); in the assay on LOX IMVI, 27.7 µM (inactive); in the assay with NCI-H522, 34.3 µM (inactive); in the assay on OVCAR-3, 24.5 µM (inactive). In addition, the GI50 in the assay with OVCAR-4 was 73.1 µM (inactive); with OVCAR-8, > 100 µM (inactive); in the assay with SF-268, 76.6 µM (inactive); with SK-MEL-2 it was 58.2 µM (inactive); in the assay on U-251, > 100 µM (inactive).

Take `COC(=O)c1ccc(/C=C/S(=O)(=O)c2ccccc2)cc1`: the GI50 is > 100 µM (inactive) in the assay with 786-0; > 100 µM (inactive) in the assay on A549; > 100 µM (inactive) with ACHN; > 100 µM (inactive) with CAKI-1; > 100 µM (inactive) in the assay with HCT-116; greater than 100 µM in the assay with HCT-15. The GI50 with HL-60 is > 100 µM (inactive); with IGROV-1, > 100 µM (inactive); with LOX IMVI, > 100 µM (inactive); with NCI-H522, 83.9 µM (inactive); with OVCAR-3, > 100 µM (inactive); in the assay on OVCAR-4, > 100 µM (inactive). Also, the GI50 with OVCAR-8, in the assay on RXF 393, in the assay with SF-268, with SK-MEL-2 and with U-251 was > 100 µM (inactive) in each case.

Take `Cc1ccc(C2[C@H]3C(=O)N(c4ccc(Cc5ccc(N6C(=O)[C@@H]7ON(c8ccccc8)C(c8ccc(C)cc8)[C@@H]7C6=O)cc5)cc4)C(=O)[C@H]3ON2c2ccccc2)cc1` (some centres not stated): the GI50 in the assay with 786-0 is > 100 µM (inactive); in the assay on A549, > 100 µM (inactive); in the assay with ACHN, > 100 µM (inactive); in the assay with CAKI-1, > 100 µM (inactive); in the assay with HCC 2998, > 100 µM (inactive); with HCT-15, greater than 100 µM. Besides, the GI50 in the assay on HL-60, in the assay with IGROV-1, with LOX IMVI, with OVCAR-3, with OVCAR-4 and in the assay with RXF 393 was > 100 µM (inactive) each time. Also, the GI50 in the assay with SF-268, in the assay with SK-MEL-2 and in the assay on U-251 was > 100 µM (inactive) throughout.

For the compound `O=C1NC(=O)C(C(=O)C(=O)Nc2cc(Cl)ccc2Cl)C(=O)N1`, the GI50 is > 100 µM (inactive) in the assay with 786-0; > 100 µM (inactive) in the assay on A549; > 100 µM (inactive) with ACHN; > 100 µM (inactive) in the assay with HCC 2998; > 100 µM (inactive) with HCT-116; greater than 100 µM in the assay on HCT-15. Further, the GI50 in the assay on HL-60, with IGROV-1, in the assay with NCI-H522, in the assay with OVCAR-3, in the assay on OVCAR-4 and in the assay with OVCAR-8 was > 100 µM (inactive) throughout. Also, the GI50 in the assay on RXF 393, in the assay with SF-268, with SK-MEL-2 and with U-251 was > 100 µM (inactive) throughout.

For `COc1ccc(NC(=O)CC(=O)N/N=C/c2ccc(N(CCC#N)S(C)(=O)=O)cc2)cc1`, the GI50 in the assay on 786-0, in the assay with A549, in the assay with ACHN, with CAKI-1, in the assay on HCC 2998 and in the assay with HCT-116 was > 100 µM (inactive) each time. Also, the GI50 in the assay with HCT-15 is greater than 100 µM; with IGROV-1, > 100 µM (inactive); in the assay on LOX IMVI it was > 100 µM (inactive); in the assay on NCI-H522, > 100 µM (inactive); in the assay with OVCAR-3, > 100 µM (inactive); in the assay with OVCAR-4 it was > 100 µM (inactive). Further, the GI50 in the assay on OVCAR-8, in the assay with RXF 393, with SF-268, in the assay on SK-MEL-2 and in the assay on U-251 was > 100 µM (inactive) each time.

`CCc1c(-c2coc(CC/C(C)=C/c3ccccc3)n2)oc(OC)c(C)c1=O`: the GI50 in the assay on 786-0 was 18.1 µM (inactive); in the assay on ACHN, 22.5 µM (inactive); in the assay with CAKI-1, > 52.2 µM (inactive); with HCC 2998 it was 78.7 µM (inactive); in the assay on HCT-116, 19 µM (inactive); in the assay with HCT-15, 18.7 µM. Also, the GI50 in the assay on HL-60 is 5.13 µM (inactive); with IGROV-1 it was > 83.8 µM (inactive); in the assay on LOX IMVI, 15.1 µM (inactive); in the assay on NCI-H522 it was 0.209 µM (active); in the assay with OVCAR-3, 45.2 µM (inactive); in the assay with OVCAR-4 it was > 39 µM (inactive). The GI50 with OVCAR-8 was 19.9 µM (inactive); with SF-268, > 100 µM (inactive); with SK-MEL-2, 60.1 µM (inactive); in the assay on U-251, 29 µM (inactive).

`Cc1cc(NS(=O)(=O)c2ccc(Nc3c4ccccc4nc4c(C(=O)NCCN(C)C)cccc34)cc2)no1`: the GI50 was 3.83 µM (inactive) in the assay on 786-0; 3.29 µM (inactive) in the assay with A549; 3.71 µM (inactive) in the assay with ACHN; 3.87 µM (inactive) in the assay with HCC 2998; 4.79 µM (inactive) with HCT-116; 18.5 µM in the assay with HCT-15. In addition, the GI50 was 0.152 µM (active) in the assay on HL-60; 2.37 µM (inactive) in the assay on IGROV-1; 1.35 µM (inactive) with LOX IMVI; 0.813 µM (active) in the assay with NCI-H522; 10.7 µM (inactive) with OVCAR-4; 4.18 µM (inactive) in the assay with OVCAR-8. Further, the GI50 in the assay with RXF 393 is 5.6 µM (inactive); with SF-268 it was 1.78 µM (inactive); in the assay on SK-MEL-2, 6.43 µM (inactive); in the assay on U-251, 2.3 µM (inactive).

For the compound `COC(=O)C1[C@@H](C(=O)OC)C12C=Cc1ccccc1C=C2` (some centres not stated), the GI50 with 786-0 was > 100 µM (inactive); with A549, > 100 µM (inactive); with ACHN it was > 100 µM (inactive); in the assay on HCC 2998 it was > 100 µM (inactive); in the assay on HCT-116, > 100 µM (inactive); in the assay on HCT-15, greater than 100 µM. Moreover, the GI50 in the assay on HL-60, in the assay with IGROV-1, in the assay on LOX IMVI, in the assay on NCI-H522, in the assay with OVCAR-3 and in the assay with OVCAR-8 was > 100 µM (inactive) each time. In addition, the GI50 in the assay with RXF 393, in the assay on SF-268, in the assay with SK-MEL-2 and in the assay on U-251 was > 100 µM (inactive) each time.

For `COC(=O)C1C(=O)O[C@@H](c2ccc(OC)cc2OC)C1C(=O)OC` (some centres not stated), the GI50 in the assay on 786-0, with A549, with ACHN, in the assay on CAKI-1, with HCC 2998 and in the assay with HCT-116 was > 100 µM (inactive) throughout. In addition, the GI50 with HCT-15 was greater than 100 µM; in the assay with HL-60 it was > 100 µM (inactive); in the assay with IGROV-1 it was > 100 µM (inactive); in the assay with LOX IMVI, > 100 µM (inactive); in the assay on OVCAR-3, > 100 µM (inactive); in the assay on OVCAR-4 it was > 100 µM (inactive). Besides, the GI50 in the assay on OVCAR-8, in the assay with RXF 393, in the assay with SF-268 and in the assay with U-251 was > 100 µM (inactive) in each case.

In the case of `CC1C=C[C@H](Sc2ccccc2)CC[C@@]1(C)O` (some centres not stated), the GI50 was > 100 µM (inactive) in the assay with 786-0; > 100 µM (inactive) in the assay on A549; > 100 µM (inactive) in the assay with ACHN; > 100 µM (inactive) with CAKI-1; > 100 µM (inactive) in the assay with HCC 2998; 97.3 µM (inactive) in the assay with HCT-116. The GI50 in the assay on HCT-15 was greater than 100 µM; in the assay with HL-60 it was 33.6 µM (inactive); in the assay on IGROV-1, > 100 µM (inactive); in the assay with LOX IMVI it was > 100 µM (inactive); in the assay on OVCAR-8, > 100 µM (inactive); in the assay with RXF 393 it was 76.2 µM (inactive). In addition, the GI50 in the assay with SK-MEL-2 and with U-251 was > 100 µM (inactive) in each case.
